≈ marks a conversion by molar mass, not a printed value.
Tests used:
Assay in all cases: microbe, parasite or virus in culture
Settings in all cases: variant bovis BCG, 3 h
[1] = test system: Mycobacterium tuberculosis
[2] = test system: Mycobacterium tuberculosis; remark: listed apart in the source
[3] = test system: Mycobacterium tuberculosis; remark: listed apart in the source

Compound	IC50 [1] [µg/mL]	IC50 [2] [µg/mL]	IC50 [3] [µg/mL]
O=C(N[C@H](CO)[C@H](O)c1ccc([N+](=O)[O-])cc1)C(Cl)Cl [CHLORAMPHENICOL]	5.6 (≈ 17.3 µM)	–	–
CO[C@H]1/C=C/O[C@@]2(C)Oc3c(C)c(O)c4c(O)c(c(/C=N/N5CCN(C)CC5)c(O)c4c3C2=O)NC(=O)/C(C)=C\C=C\[C@H](C)[C@H](O)[C@@H](C)[C@@H](O)[C@@H](C)[C@H](OC(C)=O)[C@@H]1C [RIFAMPIN]	2 (≈ 2.43 µM)	2.9 (≈ 3.52 µM)	–
C[C@@H]1CN(c2c(F)c(N)c3c(=O)c(C(=O)O)cn(C4CC4)c3c2F)C[C@H](C)N1 [SPARFLOXACIN]	11.4 (≈ 29.1 µM)	7.3 (≈ 18.6 µM)	16.7 (≈ 42.6 µM)

— ChEMBL document CHEMBL3351608, “2-Phenylindole and Arylsulphonamide: Novel Scaffolds Bactericidal against Mycobacterium tuberculosis” (ACS Med Chem Lett, 2014)
